Data on three compounds can be found in patent US10203320B2, “Label free method for assessing chemical cardiotoxicity” (Corning Incorporated, priority 2012, dated 2019).

In test [1] the test system is cultured human iPS-derived cardiomyocytes. As to the kind of experiment: Dynamic mass redistribution (DMR) assay of cultured cardiomyocytes on RWG biosensor. The format is cell-based. To be noted: 160 nM. The method, then: Coating of EPIC® resonant waveguide grating (RWG) biosensors. […] VN is the abbreviation of a vitronectin peptide ([…]). First, a functionalized cell adhesive peptide-copolymer was prepared. […] The mobile phase was trifluoroethanol and potassium trifluoroacetate. […] Standards were prepared using the VN peptide in PBS. Absorbance was read on a BIOTEK® Synergy 4.
First Mode The resonant waveguide grating biosensor is illuminated at a normal incidence angle by a collimated LED (light emitting diode) beam, which passes through a tunable optical filter with a pass band width of 1 nm. The illuminated sensor area was imaged to a high speed CMOS (complementary metal-oxide-semiconductor) camera. Spectral images were acquired synchronously when the tunable filter sweeps through a wavelength range which covers the resonances of the biosensors. The image stack contains sensor spectra in all the pixels, where resonance wavelengths are extracted in a 2D image. Normally in each acquisition, the wavelength sweep is from 825 nm to 840 nm, or 820 nm to 835 nm for a duration of 3 seconds, and 150 frames of images were acquired during the wavelength scan. For typical long-term DMR assays, the update rate was from 15 seconds to minutes, with multiple scans averaged into a single data point. […]

Test [2] has the same test system. The test can be described thus: Label-free beat pattern (resonant light intensity imaging) of cultured cardiomyocytes on RWG biosensor. To be noted: Cardiomyocyte, 0.25 h, read-out: IC50, dose-dependent decrease/block of beating (beat rate and amplitude) of cultured cardiomyocytes.
Protocol: Coating of EPIC® resonant waveguide grating (RWG) biosensors. EPIC® 384 well cell culture compatible plates were obtained from Corning, Inc. (Corning, N.Y.). The gelatin-coated EPIC® plates were obtained by incubating the plates with 10 microliter of 20 microgram/mL of freshly prepared gelatin solution in phosphate buffer saline and dried overnight under vacuum. Alternatively or additionally, for example, in experiments with IPS derived cardiomyocytes, the gelatin-coated EPIC® plates were obtained by incubating overnight, uncoated plates with 40 microliters of 0.1% gelatin (Type A) in a solution made with distilled water and autoclaved for 30 minutes to sterilize. The incubated plates were then washed with 40 microliters of sterile water three times immediately before seeding with cardiomyocyte cells.

Structures are written as SMILES. pIC50: −log10 of the molar value.

For `CC(C)NC[C@H](O)c1ccc(O)c(O)c1` [isoprotenerol, (−)-Isoproterenol], the “DMR signal of cultured cardiomyocytes in response to stimulation” value in test [1] (compared to negative control (assay vehicle), 37° C., FIG. 3) is “more sustained DMR signal”. In test [1] (compared to the baseline and the DMR induced by the assay buffer), the “oscillation pattern of the DMR signal after stimulation” value is “became smaller but with higher frequency”.
In the case of `COC(=O)C1=C(C)NC(C)=C(C(=O)OC(C)C)C1c1cccc2nonc12` (stereo not shown) [isradipine], the pIC50 in test [2] is roughly 7.00.
Same read-out and setting: next, `COc1cc(N)c(Cl)cc1C(=O)NC1CCN(CCCOc2ccc(F)cc2)CC1OC` (stereo not shown) [cisapride, cisapride monohydrate]: roughly 6.80.
